Consider 36 molecules from a melting point compilation (Tetko et al.; mined from patent text by program, amines drawn as free bases though some values may be those of a salt).

A word on the melting point: it is the temperature, or range, at which the solid turns liquid.

Turning to `Nc1nc(NCCO)c2ncn(C3C=CC(CO)C3)c2n1` (stereo unspecified), the melting point is 150 to 152 °C.

For `CCCCc1nc2ccc(C(=O)O)cc2n1Cc1ccc(-c2ccccc2-c2nnn[nH]2)cc1`, the melting point fell in the range of 258 to 259 °C.

On to `CCCCCCC(=O)c1ccc2cc(OC)c(OC)cc2c1`, for which the melting point was in the range of 77 to 78 °C.

Molecule `CSc1sc(C(N)=O)c2c1-c1oc(C)nc1CC2` returned a melting point of over 300 °C.

`Cc1nnc(C)c(-c2c(F)cc(F)cc2F)c1-c1cccs1` had a melting point of 100 to 102 °C.

Regarding `CCCc1cn(C(C)(C)C(=O)N(C)C)nc1-c1ccccc1`, the melting point lay within 98.5 to 101 °C.

`CCc1cc(OCc2ccc3oc(-c4ccccc4C(=O)O)nc3c2)c2c(n1)CCCC2` came in with a melting point of 229 to 231 °C.

As to `Cc1cc(C)nc(NC2CCC(CCN3CCN(c4ccccc4)CC3)CC2)n1` (stereo unspecified), the melting point lay in the range of 127 to 129 °C.

`CSc1ccc(CC2C(C)=C(CCN(O)C(N)=O)c3ccccc32)cc1` (stereo unspecified) displayed a melting point of 163 to 164 °C.

With `O=c1[nH]ncc2c1c(O)nc1cc(Cl)ccc12`, the melting point was over 350 °C.

Turning to `C=C1CC2C(CCC3(C)C2CCC3(O)C(=O)COC(C)=O)C2(C)CCC(=O)C=C12` (stereo unspecified), the melting point was 194 to 196 °C.

`CC(C)(C)c1ccc(-c2snnc2S)cc1` had a melting point of over 150 °C.

`COc1ccc2c(c1)CCC1C3CCC(=O)C3(C)CCC21O` (stereo unspecified): the melting point is 69 to 74 °C.

In the case of `COC(=O)c1cccc2c(=O)c3cc(I)ccc3[nH]c12`, the melting point fell in the range of 224 to 226 °C.

Molecule `COC(=O)Cc1nc(-c2ccc(OC)c(OC)c2)c2cc(OC)c(OC)cc2n1` returned a melting point of 152 to 153 °C.

In the case of `OCCc1nccn1CCCCc1ccc(OCc2ccccc2)cc1`, the melting point lay in the range of 75 to 77 °C.

Molecule `COc1ccc(C(=O)c2ccccn2)cc1CCl` returned a melting point of 92 to 94 °C.

Regarding `CC1(C)CCc2cccc3c(-c4ccc(F)cc4)c(C=CC4CC(O)CC(=O)O4)n1c23` (stereo unspecified), the melting point stood at 166 °C.

`O=C(O)c1cc(CCl)cnc1C(=O)O` gave a melting point of 170 to 172 °C.

`Nc1nc(I)nc2c1ncn2C1OC(CO)C(O)C1O` (stereo unspecified) came in with a melting point of 141 to 144 °C.

In turn, `O=C(C1Oc2ccccc2OC1c1ccccc1)N1CCOCC1` (stereo unspecified) gave a melting point of 148 to 150 °C.

On to `O=C(NCCOc1ccc(CC(Oc2cc(F)cc(F)c2)C(=O)O)cc1)c1ccc(-c2ccccn2)cc1` (stereo unspecified), for which the melting point was in the range of 150 to 151 °C.

Regarding `COc1ccc([C@@H]2Sc3ccccc3N(CCN(C)C)C(=O)[C@@H]2OC(=O)Nc2ccc(F)cc2)cc1` (relative stereo), the melting point lay in the range of 153 to 154 °C.

The molecule `Cc1c2cnccc2c(C)c2c1c1cc(O)ccc1n2C` yielded a melting point of 337 to 338 °C.

With `CCn1ncc2c(NCC3CCCCC3)c3cc(NC(C)=O)ccc3nc21`, the melting point fell in the range of 277 to 278 °C.

In the case of `CNc1nnc(C(C)(C)CCl)s1`, the melting point fell in the range of 91 to 93 °C.

The molecule `N#CCCN1CCC(C2(c3ccc(F)cc3)OCCO2)CC1` registered a melting point of 107 to 109 °C.

On to `CC1(C)OC(=O)C(Oc2cc(F)cc(F)c2)=C1c1ccc(S(C)(=O)=O)cc1`, for which the melting point lay in the range of 159 to 161 °C.

For the molecule `O=C(O)COCC(=O)NC12CC3CC(CC(C3)C1)C2`, the melting point is 181 to 183 °C.

The molecule `Nc1ncc(CN2CCN(c3ccccc3)CC2)c2nc(-c3ccco3)nn12` showed a melting point of 185 to 187 °C.

Take `CCOCc1nc2c(N)nc3ccccc3c2n1CC1CC(c2ccccc2)=NO1` (stereo unspecified): the melting point fell in the range of 235 to 237 °C.

Regarding `Cc1cc(Cl)n(-c2ccc(Cl)cc2F)n1`, the melting point is 95 to 97 °C.

In turn, `Cc1ccc2nc(-c3ccc(N)c(Br)c3)sc2c1` gave a melting point of 188 to 190 °C.

In turn, `CCCCCCCCCCCCNC(=O)CCNc1cccc(O)c1` returned a melting point of under 40 °C.

Consider `CC(=O)N[C@@H](CC(C)C)C(=O)N[C@@H](CC(C)C)C(=O)N[C@H]1CCCOC1OC(C)=O` (stereo partly specified), for which the melting point fell in the range of 238 to 240 °C.

On to `CC(C)Cn1c(CNC(=O)OC(C)(C)C)c(-c2ccc(Cl)cc2)c2cc(C(=O)O)ccc2c1=O`, for which the melting point was in the range of 226 to 227 °C.
